# Patent publication EP0488079A1, “Oxadiazolylmethylpurines, their preparation, and their pharmaceutical use” (CHINOIN Gyògyszer és Vegyészeti Termékek Gyára RT., priority 1990, dated 1992)
# Where two headings read alike, the source gives them in different places.
# Columns and labels:
# [1] = test system: durch einen 15 %-igen Citronensäurespray hervorgerufenem Husten; assay: Antitussive effect, cough induced in guinea pigs by 15 % citric acid spray; type: in vivo, Meerschweinchen; settings: Cavia porcellus, po, 1 h, read-out: ED₅₀ (±S.D.)
# Excerpt: Die hustenlindernde Wirkung wurde auch an Meerschweinchen untersucht, an denen die Dämpfung des durch einen 15 %-igen Citronensäurespray ausgelösten Hustens bestimmt wurde (I. Erdély, L. Tardos, Arzneim. Forsch. 1966, 617). Die hustenlindernden Mittel wurden eine Stunde vor der Messung oral verabreicht. Auch in diesem Test erwies sich die Verbindung Ia als starkes Hustenlinderungsmittel; ihre Wirkung übertraf die der Referenzsubstanzen (Tabelle 2). Tabelle 2
# [2] = test system: durch elektrische Reizung des Nervus laryngeus Husten; assay: Antitussive effect, cough induced in cats by electrical stimulation of the Nervus laryngeus; type: in vivo, Katzen; settings: for ED50: Felis catus, po, cough by electrical stimulation, p.o., p <0,001, read-out: ED₅₀ (±S.D.)
# Excerpt: Die hustenlindernde Wirkung der Verbindung Ia wurde an Katzen untersucht, an denen durch elektrische Reizung des Nervus laryngeus Husten ausgelöst worden war (R. Domenjoz, Arch. Exp. Path. 1952, 19). Die zu untersuchenden Verbindungen wurden i.v. beziehungsweise mit Schlundsonde p.o. verabreicht. […] Tabelle 1
# Mäusen [3] = assay: Acute oral toxicity in mice; settings: p.o.
# [4] = test system: durch Histamin ausgelösten Anstiegs des Widerstands der Luftwege; assay: Inhibition of the histamine-induced rise in airway resistance in cats; type: in vivo, Katzen; settings: for Wirkungsmaximum: 3 µg/kg histamine i.v., 4 mg/kg substance intraduodenal, measured minute 10 to 120; for rel.Wirkungsstärke: relative to Theophyllin = 1,00
# Excerpt: Die Hemmung des durch Histamin ausgelösten Anstiegs des Widerstands der Luftwege wurde an Katzen untersucht (M.A. Wassermann, D.W. Du Charme, Prostaglandins, 1977, 255).
# Minute gemessen. […] Tabelle 4
# [5] = test system: isolierten glatten Luftröhrenmuskel des Meerschweinchens; assay: Inhibition of the constrictor effect of histamine on isolated tracheal smooth muscle; type: cell-based, Meerschweinchen; settings: against histamine, isolated guinea pig tracheal smooth muscle; for EC50: cumulative dose series, read-out: p d 2 (converted)
# Excerpt: Am glatten Luftröhrenmuskel des Meerschweinchens ist die Wirkung der Verbindung Ia der des Theophyllins ähnlich, wenn die Wirkung gegen Histamin in einer kumulativen Dosisreihe untersucht wird (Tabelle 3). Tabelle 3
# Water solubility = type: physicochemical
# Mäusen [6] = settings: in vivo
# [7] = Absorption after oral administration; type: in vivo; settings: without salt formation
# [8] = test system: Zentralnervensystem und das Herz; assay: Respiratory depression and side effects on central nervous system and heart; type: in vivo
# [9] = test system: sensibilisierten Meerschweinchen; assay: Experimental asthma (anaphylaxis): airway resistance in ovalbumin-sensitised guinea pigs after intratracheal ovalbumin; type: in vivo; settings: for δ (Änderung des Beatmungswiderstands): deviation from own value after dosing
# Procedure: Die Meerschweinchen wurden durch eine einmalige Gabe von 1 µg/kg Ovalbumin i.v. sensibilisiert (Andersson, Brattsand, Br. J. Pharmacol. 1982, 139) und bekamen nach 40 Tagen die zu untersuchenden Verbindungen in einer Dosis von 10 mg/kg i.v. Die narkotisierten, muskelrelaxierten und künstlich beatmeten Tiere erhielten 3 mg/kg Ovalbumin intratracheal, und zu unterschiedlichen Zeitpunkten wurde gemessen, wie stark die zu untersuchenden Verbindungen den Anstieg des Widerstandes der Luftwege zu kompensieren vermochten.
# Nach Narkose Präparation und Verabreichung eines Muskelrelaxans Beatmung 1. Messung: 5 min nach Injizierung von 10 mg/kg Wirkstoff, dann intratracheale Provokation (Minute 0) 2. Messung: 3 min nach intratrachealer Provokation 3. Messung: 6 min nach intratrachealer Provokation 4. Messung: 12 min nach intratrachealer Provokation 5. Messung: 24 min nach intratrachealer Provokation.
# Die Beatmung erfolgte mit positivem Druck bei einer Frequenz von 90/min und einem Volumen von 3 ml.
# Die Kontrollgruppe erhielt physiologische Kochsalzlösung. Der Wert δ ist die Abweichung von dem eigenen, nach der Verabreichung der Dosis von 10 mg/kg Wirkstoff gemessenen Wert (Eigenkontrolle).
# [10] = 10 mg/kg i.v., 3 min after intratracheal ovalbumin
# [11] = 10 mg/kg i.v., 6 min after intratracheal ovalbumin
# [12] = 10 mg/kg i.v., 12 min after intratracheal ovalbumin
# [13] = 10 mg/kg i.v., 24 min after intratracheal ovalbumin
smiles,measurement,setting,value
COc1ccc2c3c1O[C@H]1[C@@H](O)C=C[C@H]4[C@@H](C2)N(C)CC[C@@]341.Cl [Codeïn HCl],ED50,[1],12.8 mg/kg
same,ED50,[2],4.33 mg/kg
same,DL₅₀,Mäusen [3],"359,2 mg/kg"
COc1ccc2c(c1)[C@]13CCCC[C@@H]1[C@H](C2)N(C)CC3 [Dextromethorphan HBr],ED50,[1],5.26 mg/kg
same,DL₅₀,Mäusen [3],"165,9 mg/kg"
"Cn1c(=O)c2[nH]cnc2n(C)c1=O [Theophyllin, reference compound]",Wirkungsmaximum,[4],"15,7"
same,rel.Wirkungsstärke,[4]; 4 mg/kg intraduodenal,"1,00"
same,EC50,[5],4.17 µM
same,Emax,[5],44%
"Cc1nc(Cn2cnc3[nH]c(=O)n(C)c(=O)c32)no1 [Verbindung Ia, 1-Methyl-7-(5-methyl-1,2,4-oxadiazol-3-yl)-methyl-3,7-dihydro-3H-purin-2,6-dion]",Wirkungsmaximum,[4],"28,2"
same,Dauer der Wirkung,"[4]; 4 mg/kg intraduodenal, compared with Theophyllin",hielt längere Zeit an
same,rel.Wirkungsstärke,[4]; 4 mg/kg intraduodenal,"1,79"
same,ED50,"[1]; guinea pigs, 15 % citric acid spray, one hour after p.o. administration, p <0,001",3.04 mg/kg
same,ED50,[2],3.74 mg/kg
same,hustenlindernde Wirkung,[2]; i.v. and p.o.,bedeutende hustenlindernde Wirkung
same,Zeitdauer der Wirkung,"[2]; i.v. and p.o., compared with reference substances",länger als die der Referenzsubstanzen
same,Wasserlöslichkeit,Water solubility,mäßigen Wasserlöslichkeit
same,EC50,[5],3.31 µM
same,Emax,[5],36%
same,therapeutischer Index,Mäusen [6],um mehr als eine Größenordnung besser als der der Referenzsubstanzen
same,DL₅₀,"Mäusen [6]; mouse, po",> 2000 mg/kg
same,Resorption,[7],ausgezeichnet und schnell resorbiert
same,atmungsdämpfende Wirkung,[8]; in contrast to the reference substances,keine atmungsdämpfende Wirkung
same,unerwünschte Nebenwirkungen auf das Zentralnervensystem und das Herz,[8]; side effects characteristic of Theophyllin,nicht aufweist
same,Beatmungswiderstand R,[9]; [10],"9,21±0,84 Pa/ml/s"
same,δ (Änderung des Beatmungswiderstands),[9]; [10],"1,14±0,77 Pa/ml/s"
same,Beatmungswiderstand R,[9]; [11],"9,41±0,91 Pa/ml/s"
same,δ (Änderung des Beatmungswiderstands),[9]; [11],"1,34±0,96 Pa/ml/s"
same,Beatmungswiderstand R,[9]; [12],"10,10±0,94 Pa/ml/s"
same,δ (Änderung des Beatmungswiderstands),[9]; [12],"2,03±0,44 Pa/ml/s"
same,Beatmungswiderstand R,[9]; [13],"9,92±1.11 Pa/ml/s"
same,δ (Änderung des Beatmungswiderstands),[9]; [13],"1,85±0,64 Pa/ml/s"
same,Beatmungswiderstand R,"[9]; nach 10 mg i.v. (5 min after injection, before intratracheal ovalbumin provocation)","8,07±0,93 Pa/ml/s"
